Results published in patent US8883856B2, “Compositions and methods for the treatment of inflammatory diseases using topoisomerase inhibitors” (priority 2000, dated 2014).
Like-named read-outs stand apart in the source and are kept apart here.

How the values were obtained:
surgical adhesions = format: in vivo; settings: for surgical adhesion formation, in words: drug-loaded crosslinked HA films (camptothecin 2.5%, doxorubicin 2.5%, beta-lapachone 5%, curcumin 10%); for mean surgical adhesion score: 2.5% loaded crosslinked HA film, 8 days, scale 0 (no adhesions) to 3 (inseparable without cutting), control film mean 2.33
Description: The rat caecal-sidewall adhesion model was used to test efficacy of crosslinked hyaluroinc acid (HA) polymeric films loaded with one of the following compounds; camptothecin 2.5% loading (w/w to polymer), curcumin 10%, doxorubicin 2.5%, beta-lapachone at 5% or unloaded-no-drug control. Films of 2-2.5 cm^2 were prepared with each drug by the method described in example 10. ETO sterilized, and divided in half at the time of surgical implantation. Sham surgeries omitted the application of HA film as separate controls.
Sprague Dawley rats, 15 male and 15 female, weighing 250-400 g were anaesthetized with Halothane (5%) and maintained, by nose cone, on 1.5-2% Halothane. Surgeries were conducted under sterile conditions. The abdomen was shaved, scrubbed with an antiseptic wash, and opened at the linea alba with a 3 cm incision. A region of the abdominal cavity immediately opposite the large bowel was isolated with bowel clamps, and a #11 scalpel blade was used to score a section of the transversus muscle, describing a rectangle 1×1.5 cm. The muscle was stripped from the peritoneal sidewall with forceps, and minor bleeding was arrested by tamponade. The large bowel was then externalized with sterile swabs, and caecal contents evacuated into the large bowel. Both surfaces of the caecum were stroked, 45 times on each side, with a #10 scalpel blade to produce erythema and punctated bleeding. Each stroke spanned the caecal diameter (approximately 1 cm), and extended along 1.5 cm of the caecal extremity. In only one case did this abrasion procedure cause sustained bleeding requiring ligation. Following 90 blade strokes, the integrity of the tissue was confirmed, and caecum and large bowel were replaced in the pelvis.
The film was laid over the rectangular sidewall abrasion (except in the case of sham surgeries), covering the area of damaged tissue. The abraded caecum, relocated in its previous orientation, was than overlaid such that the entire sidewall wound and film were covered by it. Four tacking sutures were placed at the outer extremities of the abraded area of the caecum securing it to the intact peritoneal sidewall immediately outside the rectangular wound area. The abdomen was closed in two layers, and antibiotics administered intramuscularly before the animal regained consciousness.
. Adhesions over, and adjacent to the caecum were rated according to the following findings: 0: No adhesions connecting caecum to sidewall wound; 1: Filmy or stranded were separable by blunt dissection; 2: Cohesive adhesions attaching the caecum to the sidewall were separable by aggressive blunt dissection; 3: Adhesions inseparable without cutting, or without tearing/damaging caecum. Fractions were assigned where a variety of ratings seemed applicable.

[1] = Perivascular injection of polymeric paste at the rat carotid artery; format: in vivo, Wistar rats; settings: 1% loading in 40% Triblock / 60% MePEG350 paste, 0.1 to 0.2 ml
Excerpt: Wistar rats weighing 400 g to 500 g were anesthetized with halothane. A vertical incision was made over the trachea and the left external carotid artery was exposed. Connective tissue around the left common carotid artery was left untouched. Two ligatures were placed around the external carotid artery and an arteriotomy was made between them. A 2 French Fogarty balloon was introduced into the external carotid artery and pushed into the left common carotid artery and the balloon was inflated with saline. The balloon was passed up and down the entire length of the carotid artery three times to stretch the vessel and denude the endothelium. The balloon was removed and the ligatures tied off on the external carotid artery. Camptothecin (1% loading) in a polymeric paste (40% Triblock (Angiotech pharmaceuticals) and 60% Methoxypolyethylene glycol (MePEG350)) or the carrier paste alone was injected through a 24 G angiocatheter between a distal segment of the common carotid artery and the surrounding connective tissue. Typically, 0.1 to 0.2 ml of paste was applied around the artery in 4 injections in order to cover the whole circumference of the vessel on a length of approximately 1 cm. The wound was then closed and the animals recovered.

neutrophils = assay: Neutrophil apoptosis, agarose gel DNA laddering; format: cell-based, human
Excerpt: The inflammation associated with many forms of arthritis is thought to arise from the presence of large numbers of immune cells, such as neutrophils, in the synovial joints of humans. The extended inflammation associated with crystal induced arthritis arises from the interaction of neutrophils with crystals in the synovial joint. One reason the extended duration of the inflammation in this disease may be due to the inhibition of neutrophil apoptosis by crystals. This inhibition may result in the neutrophils remaining in the joint for extended periods. Compounds that overcome this crystal induced suppression of neutrophil apoptosis therefore allow the more rapid clearance of these cells from the joint with the appropriate abatement of inflammation. The process of apoptosis involves the endonuclease driven cleavage of DNA into fragments which may be visualized as a ladder of bands in an agarose gel electrophoresis experiment. Other assays that may be used include caspase 3 quantitation or measurements of cytoplasmic DNA concentration. […] Agents that inhibit caspase activation levels or reduce cytoplasmic DNA are pro-survival (potentially inflammatory) and agents that promote are pro-apoptotic and anti-inflammatory. The use of these methods and their role in neutrophil affected inflammation is described in detail in Tudan et al. J Rheumatol. 27 p 2463-72. 2000. […]

Structure (SMILES)	surgical adhesion formation, in words (surgical adhesions; rats)	toxicity of drug-loaded hyaluronic acid films (surgical adhesions; rat, in vivo)	adverse effects of perivascular paste injection [1]	apoptosis in neutrophils first incubated with CPPD crystals (neutrophils; CPPD crystals 1 hour, then drug 0.1 uM 4 hours)	DNA laddering (apoptosis) in neutrophils (neutrophils; drug alone, 0.1 uM, 4 hours)	mean surgical adhesion score (surgical adhesions)	toxicity of drug-loaded hyaluronic acid films (surgical adhesions; films applied to abraded surgical site, rats)	surgical adhesion formation, in words (surgical adhesions; rats, listed as dodxorubicin)
COc1cc([C@@H]2c3cc4c(cc3[C@@H](O[C@@H]3O[C@@H]5CO[C@@H](C)O[C@H]5[C@H](O)[C@H]3O)[C@H]3COC(=O)[C@H]23)OCO4)cc(OC)c1O [etoposide]	inhibition of adhesion formation occurs	did not induce any toxic side effects	–	–	–	–	–	–
CC1(C)CCC2=C(O1)c1ccccc1C(=O)C2=O [beta-lapachone]	–	did not induce any toxic side effects	–	–	–	–	–	–
CC[C@@]1(O)C(=O)OCc2c1cc1n(c2=O)Cc2cc3ccccc3nc2-1 [camptothecin]	–	–	no adverse effects noted in any animal	extensive apoptosis	extensive DNA laddering	0.95	no associated toxicity	–
COc1cccc2c1C(=O)c1c(O)c3c(c(O)c1C2=O)C[C@@](O)(C(=O)CO)C[C@@H]3O[C@H]1C[C@H](N)[C@H](O)[C@H](C)O1 [doxorubicin]	inhibition of adhesion formation occurs	did not induce any toxic side effects	–	–	–	1.24	–	major inhibition of surgical adhesion formation
